Results taken from the supplement of paper PMC10307832.

Columns and labels:
Assay in all cases: relative viability (nuclei count vs DMSO), 5 days (fraction); higher = more cells survive
[1] = compound: C[C@]12O[C@H](C[C@]1(O)CO)n1c3ccccc3c3c4c(c5c6ccccc6n2c5c31)CNC4=O [Lestaurtinib] + C[C@@H](Oc1cc(-c2cnn(C3CCNCC3)c2)cnc1N)c1c(Cl)ccc(F)c1Cl [Crizotinib] (partner 1 µM)
Procedure, shortened: (§1)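 Relative viability is defined as nuclei in treated wells over nuclei in vehicle wells. Duplicate plates were run and medians reported. Lung cancer cell lines in 1536-well plates were dosed by pin tool one day after seeding, with one drug or with a fixed anchor-drug dose plus five library-drug doses (not always all listed) in √10 steps, and nuclei were counted after 5 days.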

[2] = compound: C1=CC(=CC=C1C2=CC(=C(S2)NC(=O)N)C(=O)N)F [TPCA-1] + N=C(N)NC(=N)NCCc1ccccc1 [Phenformin] (partner 250 µM)
Procedure, shortened: as §1

[3] = compound: C1/C(=C\C2=CC=CS2)/C(=O)/C(=C/C3=CC=CS3)/C1 + CS(=O)(=O)N1CCN(Cc2cc3nc(-c4cccc5[nH]ncc45)nc(N4CCOCC4)c3s2)CC1 [Pictilisib] (partner 1 µM)
Procedure, shortened: as §1

[4] = compound: C1=CC(=CC=C1C2=CC(=C(S2)NC(=O)N)C(=O)N)F [TPCA-1] + O=C(c1cc(Cc2n[nH]c(=O)c3ccccc23)ccc1F)N1CCN(C(=O)C2CC2)CC1 [Olaparib] (partner 8 µM)
Procedure, shortened: as §1

Cell Line	relative viability ([1]; first compound 0.005 µM)	relative viability ([1]; first compound 0.01581 µM)	relative viability ([1]; first compound 0.05 µM)	relative viability ([1]; first compound 0.1581 µM)	relative viability ([1]; first compound 0.5 µM)	relative viability ([2]; first compound 0.04 µM)	relative viability ([2]; first compound 0.1265 µM)	relative viability ([2]; first compound 0.4 µM)	relative viability ([2]; first compound 1.265 µM)	relative viability ([2]; first compound 4 µM)	relative viability ([3]; first compound 0.2 µM)	relative viability ([3]; first compound 0.6325 µM)	relative viability ([3]; first compound 2 µM)	relative viability ([3]; first compound 6.325 µM)	relative viability ([3]; first compound 20 µM)	relative viability ([4]; first compound 0.04 µM)	relative viability ([4]; first compound 0.1265 µM)	relative viability ([4]; first compound 0.4 µM)	relative viability ([4]; first compound 1.265 µM)	relative viability ([4]; first compound 4 µM)
201T	1.09	1.03	1.08	1.08	0.903	0.484	0.454	0.425	0.378	0.426	0.695	0.688	0.697	0.607	0.664	0.857	0.827	0.841	0.83	0.87
A549	0.77	0.771	0.227	0.183	0.0593	0.206	0.162	0.151	0.141	0.0882	0.486	0.511	0.447	–	0.456	0.342	0.313	0.507	0.201	0.0946
A-427	0.999	0.842	0.501	0.411	0.125	0.423	0.283	0.371	0.19	0.145	0.761	0.82	0.923	0.706	0.733	0.818	0.686	0.778	0.777	0.65
ABC-1	1.15	1.58	0.92	0.882	0.26	0.292	0.22	0.197	0.211	0.203	0.896	0.64	0.882	0.631	0.658	1.43	0.676	0.97	0.789	0.788
BEN	0.902	1.1	0.879	0.687	0.29	0.304	0.262	0.255	0.254	0.249	0.551	0.628	0.612	0.519	0.491	1.08	0.977	1.32	1.04	0.869
CAL-12T	0.555	0.747	0.409	0.487	0.272	0.622	0.51	0.612	0.51	0.172	0.381	0.464	0.578	0.352	0.377	0.621	0.734	0.732	0.638	0.753
COR-L23	0.707	0.763	–	0.489	0.161	0.483	0.47	0.436	0.415	0.328	0.765	0.827	0.922	0.674	0.892	0.393	0.329	0.286	0.303	0.325
COR-L 105	0.703	1.02	0.684	0.618	0.233	0.471	0.406	0.448	0.368	0.323	0.409	0.364	0.386	0.327	0.356	0.712	0.7	0.665	0.752	0.697
Calu-6	0.753	0.784	0.282	0.293	0.16	–	–	–	–	–	1.04	1.05	0.955	0.885	0.82	0.671	0.57	0.553	0.539	0.511
ChaGo-K-1	1.25	1.33	0.855	0.778	0.381	0.524	0.472	0.54	0.48	0.259	0.653	0.699	0.756	0.487	0.538	0.434	0.321	0.445	0.374	0.221
EBC-1	0.182	0.225	0.183	0.184	0.175	–	–	–	–	–	0.417	0.39	0.383	0.391	0.457	0.759	0.606	0.784	0.727	0.715
EKVX	0.855	1.11	0.945	0.892	0.551	0.215	0.22	0.252	0.198	0.125	0.44	0.431	0.415	0.34	0.467	0.963	–	0.837	0.568	0.727
EMC-BAC-2	0.722	0.76	0.599	0.569	0.264	0.604	0.476	0.571	0.4	0.247	0.61	0.548	0.545	0.48	0.505	0.486	0.461	0.572	0.355	0.245
EPLC-272H	0.939	0.65	0.458	0.574	0.581	0.343	0.391	0.292	0.289	0.272	0.33	0.315	0.396	0.39	0.306	0.992	0.709	0.839	0.455	0.372
H3255	0.879	0.988	0.825	0.649	0.461	0.39	0.39	0.353	0.356	0.316	0.545	0.452	0.467	0.405	0.506	0.577	0.542	0.536	0.527	0.507
HARA	1.19	1.21	0.86	0.994	0.162	0.476	0.45	0.469	0.484	0.162	0.452	0.448	0.508	0.504	0.445	0.884	0.765	1.09	0.742	0.656

Cell Line	relative viability ([1]; first compound 0.005 µM)	relative viability ([1]; first compound 0.01581 µM)	relative viability ([1]; first compound 0.05 µM)	relative viability ([1]; first compound 0.1581 µM)	relative viability ([1]; first compound 0.5 µM)	relative viability ([2]; first compound 0.04 µM)	relative viability ([2]; first compound 0.1265 µM)	relative viability ([2]; first compound 0.4 µM)	relative viability ([2]; first compound 1.265 µM)	relative viability ([2]; first compound 4 µM)	relative viability ([3]; first compound 0.2 µM)	relative viability ([3]; first compound 0.6325 µM)	relative viability ([3]; first compound 2 µM)	relative viability ([3]; first compound 6.325 µM)	relative viability ([3]; first compound 20 µM)	relative viability ([4]; first compound 0.04 µM)	relative viability ([4]; first compound 0.1265 µM)	relative viability ([4]; first compound 0.4 µM)	relative viability ([4]; first compound 1.265 µM)	relative viability ([4]; first compound 4 µM)
HCC-15	1.04	1.01	0.595	0.628	0.291	0.578	0.479	0.509	0.435	0.275	0.776	0.748	0.843	0.642	0.758	0.798	0.686	0.773	0.67	0.594
HCC-44	0.878	0.822	0.685	0.929	0.607	0.195	0.178	0.209	–	0.153	0.624	0.605	0.693	0.591	0.79	0.983	0.938	0.95	0.908	0.937
HCC-78	0.318	0.396	0.318	0.287	0.267	0.724	0.732	0.657	0.693	0.436	0.197	0.216	0.288	0.216	0.209	0.917	0.844	0.892	1.01	0.493
HCC-366	0.711	0.649	0.418	0.758	0.219	0.727	0.617	0.652	0.673	0.098	0.132	0.137	0.204	0.191	0.0995	–	0.304	0.37	0.348	0.239
HCC-827	0.911	1.08	0.85	0.71	0.335	0.384	0.385	0.404	0.367	0.353	1.12	1	1.1	0.933	1.01	0.678	0.62	0.772	0.609	0.367
IA-LM	0.862	1.06	1.14	0.921	0.415	–	–	–	–	–	0.396	0.399	0.31	0.369	0.359	0.818	0.834	0.846	0.765	0.72
NCI-H522	–	–	–	–	–	0.67	0.611	0.504	0.776	0.621	–	–	–	–	–	0.834	0.504	0.642	0.643	0.556
NCI-H1299	0.912	0.953	0.542	0.68	0.467	–	–	–	–	–	0.79	0.863	0.806	0.758	0.799	0.947	0.963	0.941	0.932	0.939
NCI-H1395	–	–	–	–	–	0.445	0.488	0.449	0.436	0.499	0.618	0.73	0.67	0.448	0.581	0.496	0.426	0.494	0.519	0.494
NCI-H1563	0.913	0.921	0.837	0.907	0.794	0.712	0.653	0.712	0.603	0.667	0.753	0.678	0.634	0.662	0.636	–	–	–	–	–
NCI-H1623	–	–	–	–	–	0.592	0.522	0.62	0.574	0.4	–	–	–	–	–	–	–	–	–	–
NCI-H1648	–	–	–	–	–	–	–	–	–	–	–	–	–	–	–	0.799	0.81	0.626	1.1	0.933
NCI-H1703	0.81	0.524	0.263	0.257	0.0934	–	–	–	–	–	0.278	0.247	0.259	0.227	0.248	0.443	0.39	0.433	0.398	0.424
NCI-H1793	–	–	–	–	–	0.364	–	0.297	0.402	0.261	0.409	0.202	0.291	0.31	0.352	0.982	0.735	1.1	0.821	0.546
NCI-H2342	–	–	–	–	–	0.612	0.538	0.574	0.504	0.47	–	–	–	–	–	0.487	0.351	0.44	0.423	0.325
SW 900	–	–	–	–	–	0.79	0.577	0.518	0.395	0.529	–	–	–	–	–	–	–	0.894	0.935	0.644
